As usually defined, the IC50 is the midpoint of a concentration-inhibition curve.

Where only a bound is given, the exact number is not on record here.

For the assay, the target named is ClpP1P2 (Mycobacterium tuberculosis (strain ATCC 25618 / H37Rv), UniProt P9WPC3+P9WPC5). Briefly: in vitro assay to detect presence of AMC directly proportional to the activity of ClpP1P2. GHDDI collaboration. It is filed as functional.
ClpP1P2, sequence (P9WPC5 whole entry): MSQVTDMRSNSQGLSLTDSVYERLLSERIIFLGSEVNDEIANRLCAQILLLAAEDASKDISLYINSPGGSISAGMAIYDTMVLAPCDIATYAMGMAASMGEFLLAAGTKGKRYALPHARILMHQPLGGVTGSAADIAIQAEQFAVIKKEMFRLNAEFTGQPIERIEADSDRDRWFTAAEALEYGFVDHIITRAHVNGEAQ
ClpP1P2, sequence (P9WPC3 whole entry): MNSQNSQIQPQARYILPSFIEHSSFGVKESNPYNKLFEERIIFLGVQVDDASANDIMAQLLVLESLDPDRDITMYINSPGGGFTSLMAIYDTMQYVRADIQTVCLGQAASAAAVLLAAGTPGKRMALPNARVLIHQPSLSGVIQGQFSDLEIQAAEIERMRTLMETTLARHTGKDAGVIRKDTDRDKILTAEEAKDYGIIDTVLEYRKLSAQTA

For `N#Cc1cccnc1N1CCCN(C(=O)CCn2cccn2)CC1`, the IC50 is > 100 µM.
In the case of `Cn1ccc(-c2cc(C(=O)N3CCCCC3)c3ccccn23)n1`, the IC50 was > 100 µM.
The result for `CC/N=c1\nc(NCC)nc2n1C(O)(Nc1cc(Cl)ccc1Cl)CS2` (stereo not drawn) reads > 100 µM; that for `Nc1nc(CN2CCOC(Cn3cccn3)C2)nc2ccccc12` (stereo not drawn), > 100 µM.
The result for `Cc1ccc(-c2cc(-c3c(C)nn(CCO)c3C)c(C#N)c(N)n2)cc1` reads > 100 µM.
The result for `CCOC1CCN(C(=O)CN(C)c2cnccn2)CC1` reads > 100 µM.
With `Cc1ccc(C#N)c(N2CCC3(CCC(=O)N(CC(N)=O)C3)CC2)n1`, the concentration for half-maximal inhibition (IC50) was > 100 µM.
The result for `CNc1cncc(C2CCCN2C(=O)CCn2ccnc2)n1` (stereo not drawn) reads > 100 µM; that for `COc1cc2c(cc1CCC(=O)O)CCC2`, > 100 µM.
The result for `Cc1cnn(CC2CN(Cc3nc(C)c4ccccc4n3)CCO2)c1` (stereo not drawn) reads > 100 µM.
The same measure for `CC(C)SCCNC(=O)c1cccc2ccnn12`: > 100 µM; for `CCCNCc1ccc(-c2cc(N)nc3[nH]ccc23)cc1`: > 100 µM.
Take `COc1ccc2c(c1)C(=O)N(C)C1(CCN(CC=C(C)C)CC1)N2`: the IC50 is > 100 µM.
On to `COc1ccc(-c2nc(CN3CCc4cncnc4C3)no2)cc1`, for which the IC50 is > 100 µM.
The same measure for `Cc1cc(C)c2cc(CNCC3CCCO3)c3nn(C)c(=O)n3c2c1` (stereo not drawn): > 100 µM; for `CC(C)Nc1nc2c(c(NC3CC3)n1)CN(C(=O)c1ccsc1)CC2`: > 100 µM; for `COCc1nc(C(=O)N2CCCC(n3nc(C)cc3C)C2)cs1` (stereo not drawn): > 100 µM.
Take `CCOC(=O)Cn1nnnc1-c1ccccc1`: the IC50 is > 100 µM.
On to `O=C(CO)N1CCC(CCc2ccnc(Nc3cnccn3)c2)CC1`, for which the IC50 was > 100 µM.
With `Cc1ccccc1OCCN1CCn2c(C)nnc2C1`, the IC50 was > 100 µM.
Turning to `CC1CCN(C(=O)c2cnn3c(-c4ccco4)ccnc23)CC1`, the half-inhibitory concentration (IC50) was > 100 µM.
With `CCNC(=O)[C@@H]1C[C@H](NC(=O)c2cc(=O)[nH]c3ccc(C)cc23)CN1C`, the IC50 was > 100 µM.
The result for `COc1ccc2[nH]c(=O)c(CN(C)CCN3CCCC3)cc2c1` reads > 100 µM; that for `O=C(c1cnn2c(-c3ccco3)ccnc12)N1CCCCCC1`, > 100 µM.
The result for `O=C(O)C1(O)CCN(c2ccc3cccc(Cl)c3n2)CC1` reads > 100 µM.
The same measure for `O=C(O)C1CN(c2cncc(Cc3ccccc3F)n2)C1`: > 100 µM; for `CN(C(=O)CCc1nc(C2CC2)no1)c1cc(C#N)c2ccccc2n1`: > 100 µM; for `Cc1cc(NCC(=O)N(C)C)c(C(N)=O)cc1F`: > 100 µM.
As to `Fc1cccc(CNc2cncc(-n3cccn3)n2)c1`, the IC50 is > 100 µM.
The result for `CN(C)C1CCN(C(=O)Cc2csc(-c3ncccn3)n2)CC1` reads > 100 µM; that for `Cn1ccc2c(cnc3nc(-c4ccncc4)nn32)c1=O`, > 100 µM; that for `Cc1nc(CN(C)C2CCN(Cc3cccc4c3OCCO4)C2)no1` (stereo not drawn), > 100 µM.
With `c1cnnc(N2CCCC(NCc3nnc(-c4ccco4)o3)C2)c1` (stereo not drawn), the IC50 was > 100 µM.
With `COc1cccc2ccc(N3CCC(O)(c4ccc(C)cn4)CC3)nc12`, the IC50 was > 100 µM.
The result for `CC(Cn1cccn1)NC(=O)Cc1csc(C(C)C)n1` (stereo not drawn) reads > 100 µM; that for `CC(C)(C)OC(=O)NCCNC(=O)c1ccc(-c2ccco2)[nH]c1=O`, > 100 µM; that for `N#Cc1cccnc1N1CCC(C2CCCCCN2C(=O)C2CC2)CC1` (stereo not drawn), > 100 µM.
The same measure for `c1ccc(CN2CCc3ncnc(-c4ccoc4)c3CC2)nc1`: > 100 µM; for `Cc1ccc(CN2C[C@@H]3[C@@H](C(=O)N4CCCC4)CCS(=O)(=O)[C@@H]3C2)cc1`: > 100 µM; for `CC(c1ccncn1)N(C)Cc1cc2cc3c(cc2[nH]c1=O)OCO3` (stereo not drawn): > 100 µM.
The result for `CCCn1nc2c(cc1=O)CN(CC(=O)N(C)c1nccs1)CC2` reads > 100 µM.
For the molecule `CC(C)n1c2ccccc2c2c1cc(C(=O)NCCO)n2C(=O)N(C)C`, the IC50 was > 100 µM.
The result for `CCc1nc(C2CCCN2C(=O)CCCn2cncn2)no1` (stereo not drawn) reads > 100 µM.

Source of the values: ChEMBL document CHEMBL3988442, “University of Dundee, Small-Polar-MMV Screening Library” (2021).
